Results reported in patent US9481648B2, “Kinase inhibitors” (Respivert Limited, priority 2013, dated 2016).
Where two headings read alike, the source gives them in different places.

Columns and labels:
non-mutant kinases = format: binding; settings: for KinomeScan Selectivity Score S(10): (number of non-mutant kinases with % Ctrl <10)/(number of non-mutant kinases tested); for KinomeScan Selectivity Score S(35): (number of non-mutant kinases with % Ctrl <35)/(number of non-mutant kinases tested); for number of individual kinase hits, S(1): non-mutant kinases with % Ctrl <1; for number of individual kinase hits, S(10): non-mutant kinases with % Ctrl <10; for number of individual kinase hits, S(35): non-mutant kinases with % Ctrl <35; for KinomeScan Selectivity Score S(1): (number of non-mutant kinases with % Ctrl <1)/(number of non-mutant kinases tested); for selectivity compared to the Reference Compound: as evidenced by lower selectivity scores
Experimental: These assays may be conducted by DiscoverX (formerly Ambit; San Diego, Calif.). The percentage inhibition produced by incubation with a test compound may be calculated relative to the non-inhibited control.

[1] = system: adoptive transfer (CD45RBhigh cells) colitis in SCID mice; assay: Adoptive transfer in mice (in vivo v); set-up: species or system mouse; settings: for % Inhibition (of the induction window between naïve and vehicle animals): colon weight:length
Experimental: On Study day 0, female Balb/C mice are terminated and spleens obtained for CD45RB^high cell isolation (Using SCID IBD cell Separation protocol). Approximately 4×10^5 cells/mL CD45RB^high cells are then injected intraperitoneally (100 μL/mouse) into female SCID animals. On study day 14, mice are weighed and randomized into treatment groups based on body weight. On Day 14, compounds are administered BID, via oral gavage, in a peanut oil vehicle at the dose levels outlined below in Tables 6a and 6b and a dose volume of 5 mL/kg. Treatment continues until study day 42, at which point the animals are necropsied 4 hours after the morning administration. The colon length and weight are recorded and used as a secondary endpoint in the study as a measurement of colon oedema. The colon is then divided into six cross-sections, four of which are used for histopathology scoring (primary endpoint) and two are homogenised for cytokine analysis. Data shown is the % inhibition of the induction window between naïve animals and vehicle animals, where higher inhibition implies closer to the non-diseased, naïve, phenotype.

[2] = Plasma pharmacokinetics in rats, single intravenous or oral administration; format: in vivo, rat (male Wistar); settings: for Fpo: oral 5 mg/kg, vehicle C (Example 4) or B; for C0: intravenous 0.25 mg/kg in 5% DMSO-7.5% Solutol HS15-87.5% normal saline; for Vd: read-out: Vss
Experimental: Studies were conducted by Sai Life Sciences (Hinjewadi, Pune, India) to investigate the plasma pharmacokinetics and total colon tissue distribution of compounds of the invention. In particular, pharmacokinetic studies were carried out in: • male C57BL/6 mice, following a single oral administration; and • male Wistar rats following a single intravenous or oral administration.

CYP3A4 = CYP3A4 (Homo sapiens (Human), UniProt P08684); assay: CYP3A4 inhibition study; format: in vitro ADME; settings: for inhibition at 5 μM / inhibition at 15 µM: human; for inhibition at 5 μM: read-out: % Inh (inhibition at 5 μM reported instead); for inhibition at 15 µM: read-out: 15 μM % Inh
Sequence of CYP3A4 (P08684 whole entry): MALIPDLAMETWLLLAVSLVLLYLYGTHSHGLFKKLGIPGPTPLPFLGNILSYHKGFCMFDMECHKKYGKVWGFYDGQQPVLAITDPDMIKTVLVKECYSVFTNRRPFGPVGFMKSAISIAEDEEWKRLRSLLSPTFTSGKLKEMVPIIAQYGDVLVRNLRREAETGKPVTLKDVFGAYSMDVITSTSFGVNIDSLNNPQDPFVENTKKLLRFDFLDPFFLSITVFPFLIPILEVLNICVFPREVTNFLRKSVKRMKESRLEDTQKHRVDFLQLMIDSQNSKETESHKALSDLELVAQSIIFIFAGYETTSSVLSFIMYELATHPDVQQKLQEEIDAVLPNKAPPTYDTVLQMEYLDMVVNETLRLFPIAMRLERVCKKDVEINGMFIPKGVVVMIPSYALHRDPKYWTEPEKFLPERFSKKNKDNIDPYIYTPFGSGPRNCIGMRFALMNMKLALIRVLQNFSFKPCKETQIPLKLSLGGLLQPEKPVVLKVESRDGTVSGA
Experimental: Assessment of certain in vitro ADME (absorption, distribution, metabolism, and excretion) parameters for certain compounds of the invention was conducted by BioFocus (Saffron Walden, UK).

c-Src = c-Src (Homo sapiens (Human), UniProt P12931); assay: c-Src enzyme inhibition (FRET, Z-LYTE); format: biochemical
Sequence of c-Src (P12931 whole entry, looked up): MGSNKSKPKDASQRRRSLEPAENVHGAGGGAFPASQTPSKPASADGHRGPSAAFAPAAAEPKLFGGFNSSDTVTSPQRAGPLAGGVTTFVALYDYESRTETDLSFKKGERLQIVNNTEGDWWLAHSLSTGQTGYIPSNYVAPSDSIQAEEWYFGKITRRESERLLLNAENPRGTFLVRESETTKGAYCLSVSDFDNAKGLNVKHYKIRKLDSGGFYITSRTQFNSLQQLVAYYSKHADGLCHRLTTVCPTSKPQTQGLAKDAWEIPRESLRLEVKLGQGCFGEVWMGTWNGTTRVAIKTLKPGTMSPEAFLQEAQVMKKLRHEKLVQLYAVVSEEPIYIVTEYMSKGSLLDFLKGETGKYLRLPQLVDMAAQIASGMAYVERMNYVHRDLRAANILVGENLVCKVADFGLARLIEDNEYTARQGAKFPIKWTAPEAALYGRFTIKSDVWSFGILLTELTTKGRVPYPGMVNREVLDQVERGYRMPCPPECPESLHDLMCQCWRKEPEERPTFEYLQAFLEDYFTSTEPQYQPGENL
How it was run: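 Syk or c-Src enzyme (3000 or 2000 ng/mL solutions) was preincubated 2 h at RT with compound solutions at 1, 0.1, 0.01 or 0.001 µg/mL. Z-LYTE FRET peptide (8 µM solution) and ATP (800 µM solution for c-Src, 60 µM for Syk) were then added for 1 h, followed by protease development for 1 h. Phosphorylation was read as the coumarin/fluorescein emission ratio.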

[3] = system: β-catenin in d-U937 cells; assay: Accumulation of β catenin in d-U937 cells (assay m); format: cell-based, human
How it was run: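 U937 cells were differentiated with PMA (100 ng/mL) for 48–72 hr, then treated with compound or vehicle for 18 hr. After formaldehyde fixation, β-catenin was detected with a primary antibody and an HRP secondary using TMB (OD450–655). Signal was normalised to crystal violet cell staining (OD595).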

hERG channel = hERG channel (Homo sapiens (Human), UniProt Q12809); assay: hERG inhibition (IonWorks patch clamp electrophysiology); format: cell-based; settings: human, 3 μM
Sequence of hERG channel (Q12809 whole entry): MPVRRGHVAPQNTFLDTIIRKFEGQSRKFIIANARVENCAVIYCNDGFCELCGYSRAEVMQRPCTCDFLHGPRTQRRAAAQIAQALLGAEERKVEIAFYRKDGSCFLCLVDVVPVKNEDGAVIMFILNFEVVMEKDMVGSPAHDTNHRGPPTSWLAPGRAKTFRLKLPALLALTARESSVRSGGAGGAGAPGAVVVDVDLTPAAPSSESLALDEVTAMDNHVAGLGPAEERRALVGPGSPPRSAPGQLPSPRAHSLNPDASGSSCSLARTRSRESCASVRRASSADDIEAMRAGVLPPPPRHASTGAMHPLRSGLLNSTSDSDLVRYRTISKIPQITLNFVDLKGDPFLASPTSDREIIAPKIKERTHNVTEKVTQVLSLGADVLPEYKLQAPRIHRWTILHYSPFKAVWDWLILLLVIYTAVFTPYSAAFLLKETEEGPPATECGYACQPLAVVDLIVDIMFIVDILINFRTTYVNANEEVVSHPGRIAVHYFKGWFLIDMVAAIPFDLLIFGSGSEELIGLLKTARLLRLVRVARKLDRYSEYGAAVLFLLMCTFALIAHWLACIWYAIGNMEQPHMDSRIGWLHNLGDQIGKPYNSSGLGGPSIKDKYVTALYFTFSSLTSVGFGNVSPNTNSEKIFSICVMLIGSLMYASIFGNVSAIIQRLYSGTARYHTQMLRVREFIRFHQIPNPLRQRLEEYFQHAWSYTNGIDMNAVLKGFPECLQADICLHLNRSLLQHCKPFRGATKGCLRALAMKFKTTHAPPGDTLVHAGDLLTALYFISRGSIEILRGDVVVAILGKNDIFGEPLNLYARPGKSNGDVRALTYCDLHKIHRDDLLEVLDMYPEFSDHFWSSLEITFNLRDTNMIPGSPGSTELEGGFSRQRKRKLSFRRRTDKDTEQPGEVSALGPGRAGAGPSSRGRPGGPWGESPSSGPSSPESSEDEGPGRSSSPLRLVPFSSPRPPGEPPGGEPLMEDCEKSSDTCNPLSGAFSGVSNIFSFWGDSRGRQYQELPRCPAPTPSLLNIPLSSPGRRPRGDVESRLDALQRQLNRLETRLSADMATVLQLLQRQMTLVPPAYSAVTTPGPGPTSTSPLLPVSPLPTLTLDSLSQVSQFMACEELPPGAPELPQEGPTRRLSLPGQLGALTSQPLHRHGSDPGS
Experimental: (§1) Compounds of the invention were tested for inhibition of the human ether a go-go (hERG) channel using IonWorks™ patch clamp electrophysiology at Essen Bioscience (Welwyn Garden City, England).

[4] = target: human ether a go-go (hERG) channel (Homo sapiens (Human), UniProt Q12809); assay: as above; format: cell-based; settings: IonWorks patch clamp
Sequence of human ether a go-go (hERG) channel (Q12809 whole entry): as above
Experimental: as §1

[5] = 1 mg/kg, adoptive transfer mouse model
[6] = male, Wistar, rat, plasma, po, 5 mg/kg
[7] = male, Wistar, rat, plasma, rats, intravenous 0.25 mg/kg
[8] = male, Wistar, rat, plasma, rats
[9] = 3 mg/kg, adoptive transfer mouse model
[10] = male, Wistar, rat, plasma, po, 5 mg/kg, read-out: Median plasma concentration

C#Cc1cc(Nc2nccc(Oc3ccc(NC(=O)Nc4cc(C(C)(C)C)cc(NS(C)(=O)=O)c4OC)c4ccccc34)n2)cc(C(=O)NCCOCCOCCOC)c1 [Example 16]
KinomeScan Selectivity Score S(10) (non-mutant kinases; 50 nM): 0.023 | KinomeScan Selectivity Score S(35) (non-mutant kinases; 50 nM): 0.068 | number of individual kinase hits, S(1) (non-mutant kinases; 50 nM): 0 | number of individual kinase hits, S(10) (non-mutant kinases; 50 nM): 9 | number of individual kinase hits, S(35) (non-mutant kinases; 50 nM): 27 | KinomeScan Selectivity Score S(1) (non-mutant kinases; 500 nM): 0.038 | KinomeScan Selectivity Score S(10) (non-mutant kinases; 500 nM): 0.129 | KinomeScan Selectivity Score S(35) (non-mutant kinases; 500 nM): 0.197 | number of individual kinase hits, S(1) (non-mutant kinases; 500 nM): 15 | number of individual kinase hits, S(10) (non-mutant kinases; 500 nM): 51 | number of individual kinase hits, S(35) (non-mutant kinases; 500 nM): 78 | selectivity compared to the Reference Compound (non-mutant kinases): substantially improved selectivities | activity in T cell driven in vivo model of colonic inflammation (relative ratios of colon weight to length) ([1]; adoptive transfer mouse model): significant activity | levels of pro-inflammatory cytokines in samples of colon tissue ([1]; adoptive transfer mouse model): significantly reduced | Fpo ([2]; rats): 0.0% | 15 μM % Inh (CYP3A4; CYP3A4, 0 min preincubation): 31% | 15 μM % Inh (CYP3A4; CYP3A4, 30 min preincubation): 54%

COCCOCCOCCOc1cc(Nc2nccc(Oc3ccc(NC(=O)Nc4cc(C(C)(C)C)cc(NS(C)(=O)=O)c4OC)c4ccccc34)n2)cc(OC)c1 [Example 4, N-(5-(tert-Butyl)-2-methoxy-3-(3-(4-((2-((3-methoxy-5-(2-(2-(2-methoxyethoxy)ethoxy)-ethoxy)phenyl)amino)pyrimidin-4-yl)oxy)naphthalen-1-yl)ureido)phenyl)methanesulfonamide]
IC50 (c-Src): 14 nM | % β-catenin induction ([3]; test compound 1 μg/mL): 3% | % β-catenin induction ([3]; test compound 5 μg/mL): 20% | % β-catenin induction ([3]; test compound 10 μg/mL): 20% | Colon weight:length ([1]; 0.3 mg/kg BID oral gavage, adoptive transfer mouse model): 0.030 ± 0.008 | % Inhibition (of the induction window between naïve and vehicle animals) ([1]; 0.3 mg/kg BID oral gavage): 62% | Colon weight:length ([1]; 1 mg/kg BID oral gavage, adoptive transfer mouse model): 0.020 ± 0.002 | % Inhibition (of the induction window between naïve and vehicle animals) ([1]; 1 mg/kg BID oral gavage): 110% | IFNγ level in colon tissue [1, 5]: 2.8 ± 0.8 pg/mL | IL-8 level in colon tissue [1, 5]: 53.3 ± 23.0 pg/mL | levels of pro-inflammatory cytokines in samples of colon tissue ([1]; adoptive transfer mouse model): significantly reduced | AUC(0-inf) [2, 6]: 40.8 ng·h/mL | AUC(0-t) [2, 6]: 27 ng·h/mL | Cmax [2, 6]: 15.5 ng/mL | Tmax [2, 6]: 30 min | AUC(0-inf) [2, 7]: 563 ng·h/mL | AUC(0-t) [2, 7]: 558 ng·h/mL | half-life [2, 7]: 48 min | C0 [2, 8]: 3040 ng/mL | Vd [2, 7]: 0.2 L/kg | CI ([2]; rats, intravenous 0.25 mg/kg): 7.9 mL/min/kg | Fpo ([2]; rats): 0.2% | IC50 (CYP3A4; CYP3A4, 0 min preincubation): > 5000 nM | IC50 (CYP3A4; CYP3A4, 30 min preincubation): 2700 nM | inhibition at 5 μM (CYP3A4; CYP3A4, 0 min preincubation): 9% | inhibition at 5 μM (CYP3A4; CYP3A4, 30 min preincubation): 58% | inhibition at 3 µM (hERG channel): -4 ± 2% | IC50 [4]: > 3000 nM

COc1cc(Nc2cc(Oc3ccc(NC(=O)Nc4cc(C(C)(C)C)cc(NS(C)(=O)=O)c4OC)c4ccccc34)ccn2)cc(C(=O)NCCN2CCOCC2)c1 [Example 27]
IC50 (c-Src): 26 nM | % β-catenin induction ([3]; test compound 1 μg/mL): −12% | % β-catenin induction ([3]; test compound 5 μg/mL): −7% | % β-catenin induction ([3]; test compound 10 μg/mL): −1% | Colon weight:length ([1]; 3 mg/kg BID oral gavage, adoptive transfer mouse model): 0.022 ± 0.002 | % Inhibition (of the induction window between naïve and vehicle animals) ([1]; 3 mg/kg BID oral gavage): 99% | IFNγ level in colon tissue [1, 9]: 19.1 ± 6.5 pg/mL | IL-8 level in colon tissue [1, 9]: 131.1 ± 56.1 pg/mL | levels of pro-inflammatory cytokines in samples of colon tissue ([1]; adoptive transfer mouse model): significantly reduced | Colon weight:length ([1]; adoptive transfer mouse model, 0.03 mg/kg BID oral): 0.047 ± 0.005 | Colon weight:length ([1]; adoptive transfer mouse model, 0.3 mg/kg BID oral): 0.038 ± 0.004 | Colon weight:length ([1]; adoptive transfer mouse model, 3 mg/kg BID oral): 0.034 ± 0.003 | AUC(0-inf) [2, 7]: 590 ng·h/mL | AUC(0-t) [2, 7]: 588 ng·h/mL | half-life [2, 7]: 48 min | C0 [2, 8]: 3880 ng/mL | Vd [2, 7]: 0.1 L/kg | CI ([2]; rats, intravenous 0.25 mg/kg): 7.1 mL/min/kg | Fpo ([2]; rats): 0.0% | IC50 (CYP3A4; CYP3A4, 0 min preincubation): > 15000 nM | IC50 (CYP3A4; CYP3A4, 30 min preincubation): 8900 nM | inhibition at 15 µM (CYP3A4; CYP3A4, 0 min preincubation): 19% | inhibition at 15 µM (CYP3A4; CYP3A4, 30 min preincubation): 57% | inhibition at 3 µM (hERG channel): -3 ± 5% | IC50 [4]: > 3000 nM

COc1c(NC(=O)Nc2ccc(Oc3ccnc(Nc4ccccc4)c3)c3ccccc23)cc(C(C)(C)C)cc1C(=O)NC1COC1 [Example 75, 5-(tert-Butyl)-2-methoxy-N-(oxetan-3-yl)-3-(3-(4-((2-(phenylamino)pyridin-4-yl)oxy)-naphthalen-1-yl)ureido)benzamide]
KinomeScan Selectivity Score S(1) (non-mutant kinases; 50 nM): 0.005 | KinomeScan Selectivity Score S(10) (non-mutant kinases; 50 nM): 0.035 | KinomeScan Selectivity Score S(35) (non-mutant kinases; 50 nM): 0.099 | number of individual kinase hits, S(1) (non-mutant kinases; 50 nM): 2 | number of individual kinase hits, S(10) (non-mutant kinases; 50 nM): 14 | number of individual kinase hits, S(35) (non-mutant kinases; 50 nM): 39 | KinomeScan Selectivity Score S(1) (non-mutant kinases; 500 nM): 0.038 | KinomeScan Selectivity Score S(10) (non-mutant kinases; 500 nM): 0.139 | KinomeScan Selectivity Score S(35) (non-mutant kinases; 500 nM): 0.230 | number of individual kinase hits, S(1) (non-mutant kinases; 500 nM): 15 | number of individual kinase hits, S(10) (non-mutant kinases; 500 nM): 55 | number of individual kinase hits, S(35) (non-mutant kinases; 500 nM): 91 | selectivity compared to the Reference Compound (non-mutant kinases): substantially improved selectivities | IC50 (c-Src): 97 nM | % β-catenin induction ([3]; test compound 1 μg/mL): 3% | % β-catenin induction ([3]; test compound 5 μg/mL): 25% | % β-catenin induction ([3]; test compound 10 μg/mL): 30% | AUC(0-t) [2, 6]: 26.6 ng·h/mL | Cmax [2, 6]: 3.8 ng/mL | Tmax [2, 6]: 318 min | concentration at 0.25 h [2, 10]: 0 ng/mL | concentration at 0.5 h [2, 10]: 0 ng/mL | concentration at 1 h [2, 10]: 0 ng/mL | concentration at 2 h [2, 10]: 1.2 ng/mL | concentration at 4 h [2, 10]: 3.1 ng/mL | concentration at 6 h [2, 10]: 2 ng/mL | concentration at 8 h [2, 10]: 3.2 ng/mL | concentration at 12 h [2, 10]: 2.3 ng/mL | concentration at 24 h [2, 10]: 0 ng/mL | AUC(0-inf) [2, 7]: 952 ng·h/mL | AUC(0-t) [2, 7]: 948 ng·h/mL | half-life [2, 7]: 72 min | C0 [2, 8]: 4000 ng/mL | Vd [2, 7]: 0.1 L/kg | CI ([2]; rats, intravenous 0.25 mg/kg): 4.4 mL/min/kg | Fpo ([2]; rats): 0.1% | IC50 (CYP3A4; CYP3A4, 0 min preincubation): > 15000 nM | IC50 (CYP3A4; CYP3A4, 30 min preincubation): > 15000 nM | inhibition at 15 µM (CYP3A4; CYP3A4, 0 min preincubation): 3% | inhibition at 15 µM (CYP3A4; CYP3A4, 30 min preincubation): 42% | inhibition at 3 µM (hERG channel): 0% | IC50 [4]: > 3000 nM
